Experiments:
P. vulgaris ATCC6380 = assay: Relative respiratory activity with 22 effectors (Example 3); format: cell-based, Proteus vulgaris; conditions: for activity at 20000 µM: effector 20 mM
Description: (§1) In this example, each microorganism is subjected to 22 different effector compounds in addition to control measurements. […] For each microorganism, duplicate measurements were made of 22 different effector compounds. In addition, duplicate measurements were made a control test containing no effector compound. One additional measurement was made of a control solution containing the microorganism with ferricyanide but without effector or DCIP.
(§2) In this example, each normalized data set containing duplicate measurements for each of 22 effector compounds is referenced to the duplicate internal controls to allow batch-to-batch comparison. The obtained signals of charge per unit electrode area for the duplicate control measurements are averaged and set at 100% respiratory cycle activity. […] The data set used to generate pattern recognition plots consists of 5 replicate batches (each batch containing duplicate measurements for each of 22 effector compounds) for each cell culture (10 strains). This is used to generate a 50 (columns)×22 (rows) matrix. The matrix is imported into MATLAB (Version 6.0). Factor analysis is performed using the MATLAB Chemometric Toolbox (Version 2.3) and involves the generation of reduced eigenvectors to determine the optimal number of factors, examination of the resulting residuals plots for randomness, and the generation of scores for the first four principle components.

E. faecalis = assay: as above; format: cell-based, Enterococcus faecalis; conditions: for activity at 20000 µM: effector 20 mM
Description: as §1, §2

E. aerogenes ATCC13048e = assay: as above; format: cell-based, Enterobacter aerogenes; conditions: for activity at 20000 µM: effector 20 mM
Description: as §1, §2

E. coli B = assay: as above; format: cell-based; conditions: for activity at 20000 µM: effector 20 mM
Description: as §1, §2

E. coli HB101 = assay: as above; format: cell-based; conditions: for activity at 20000 µM: effector 20 mM
Description: as §1, §2

E. coli JM105 = assay: as above; format: cell-based; conditions: for activity at 20000 µM: effector 20 mM
Description: as §1, §2

E. coli Neotype = assay: as above; format: cell-based; conditions: for activity at 20000 µM: effector 20 mM
Description: as §1, §2

P. aeruginosa = assay: as above; format: cell-based, Pseudomonas aeruginosa; conditions: for activity at 20000 µM: effector 20 mM
Description: as §1, §2

S. aureus ATCC6538P = assay: as above; format: cell-based, Staphylococcus aureus; conditions: for activity at 20000 µM: effector 20 mM
Description: as §1, §2

S. cerevisiae = assay: as above; format: cell-based, Saccharomyces cerevisiae; conditions: for activity at 20000 µM: effector 20 mM
Description: as §1, §2

Gram-positive bacteria = conditions: effector 1 mM instead of 1 mM glucose, relative to + DCIP
Description: The following steps are used for each test: (1) preheating for a fixed time (4 min) and a fixed temperature (35° C.) a 150 μL aliquot of buffer containing 1 mM glucose (glc) with or without 5 μM DCIP; (2) this is followed by the addition of 50 μL of the bacterial suspension to the sample for a fixed time (10 min) and at a fixed temperature (35° C.); (3) this is followed by the addition of the mediator (50 μL of 0.4 M potassium ferricyanide) for a fixed time (10 min) and at a fixed temperature (35° C.); and (4) measurement of current at a fixed voltage difference (100 mV) between two platinum electrodes for a fixed time (120 sec) at a fixed temperature (35° C.). The final ferricyanide concentration in the sample prior to reaction with the microorganism is 40 mM.
In this configuration the assay uses two platinum electrodes each having a surface area of approximately 0.03 cm^2. The measured current depends on the concentration of the least-concentrated species of the redox-couple in solution. […] The magnitude of the measured current indicates the quantity of the reduced mediator present in the assay solution. The measured current is integrated over time to produce a plot of total charge against time. The change in total charge is measured between 30 and 120 seconds after the potential is applied. […]

[1] = Escherichia coli, read-out: relative %-respiratory activity
[2] = effector 3 mM, 5 μM DCIP, no effector = 100%, n = 20
[3] = effector 3 mM, 5 μM DCIP, no effector = 100%, n = 26
[4] = effector 3 mM, 5 μM DCIP, no effector = 100%, n = 18
[5] = effector 3 mM, 5 μM DCIP, no effector = 100%, n = 10
[6] = Proteus vulgaris, ATCC6380, 5 μM DCIP, no effector = 100%, n = 20
[7] = Enterococcus faecalis, 5 μM DCIP, no effector = 100%, n = 20
[8] = Klebsiella aerogenes, ATCC13048E, 5 μM DCIP, no effector = 100%, n = 26
[9] = Escherichia coli, 5 μM DCIP, no effector = 100%, n = 10
[10] = Escherichia coli, HB101, 5 μM DCIP, no effector = 100%, n = 18
[11] = Escherichia coli, JM105, 5 μM DCIP, no effector = 100%, n = 10
[12] = Escherichia coli, 5 μM DCIP, no effector = 100%, n = 26
[13] = Pseudomonas aeruginosa, 5 μM DCIP, no effector = 100%, n = 18
[14] = Staphylococcus aureus, ATCC6538P, 5 μM DCIP, no effector = 100%, n = 20
[15] = Saccharomyces cerevisiae, 5 μM DCIP, no effector = 100%, n = 10

Work on `NCCCC[C@H](N)C(=O)O` [L-lysine] yielded an activity at 10000 µM (P. vulgaris ATCC6380; Proteus vulgaris, ATCC6380, read-out: relative %-respiratory activity) of 219%, an activity at 10000 µM (E. faecalis; Enterococcus faecalis, read-out: relative %-respiratory activity) of 243% and an activity at 10000 µM (E. aerogenes ATCC13048e; Klebsiella aerogenes, ATCC13048E, read-out: relative %-respiratory activity) of 125%. It also gave an activity at 10000 µM (E. coli B; [1]) of 100%, an activity at 10000 µM (E. coli HB101; Escherichia coli, HB101, read-out: relative %-respiratory activity) of 125% and an activity at 10000 µM (E. coli JM105; Escherichia coli, JM105, read-out: relative %-respiratory activity) of 118%. It also gave an activity at 10000 µM (E. coli Neotype; [1]) of 101%, an activity at 10000 µM (P. aeruginosa; Pseudomonas aeruginosa, read-out: relative %-respiratory activity) of 186% and an activity at 10000 µM (S. aureus ATCC6538P; Staphylococcus aureus, ATCC6538P, read-out: relative %-respiratory activity) of 159%. The activity at 10000 µM (S. cerevisiae; Saccharomyces cerevisiae, read-out: relative %-respiratory activity) was 240%.
`NCCC[C@H](N)C(=O)O` [L-ornithine] was tested, and the activity at 5000 µM (P. vulgaris ATCC6380; Proteus vulgaris, ATCC6380, effector 5 mM, 5 μM DCIP, no effector = 100%, n = 20) was 151%, the activity at 5000 µM (E. faecalis; Enterococcus faecalis, effector 5 mM, 5 μM DCIP, no effector = 100%, n = 20) was 138% and the activity at 5000 µM (E. aerogenes ATCC13048e; Klebsiella aerogenes, ATCC13048E, effector 5 mM, 5 μM DCIP, no effector = 100%, n = 26) was 142%. The activity at 5000 µM (E. coli B; Escherichia coli, effector 5 mM, 5 μM DCIP, no effector = 100%, n = 10) was 135%, the activity at 5000 µM (E. coli HB101; Escherichia coli, HB101, effector 5 mM, 5 μM DCIP, no effector = 100%, n = 18) was 114% and the activity at 5000 µM (E. coli JM105; Escherichia coli, JM105, effector 5 mM, 5 μM DCIP, no effector = 100%, n = 10) was 165%. For the same molecule, the activity at 5000 µM (E. coli Neotype; Escherichia coli, effector 5 mM, 5 μM DCIP, no effector = 100%, n = 26) was 134%, the activity at 5000 µM (P. aeruginosa; Pseudomonas aeruginosa, effector 5 mM, 5 μM DCIP, no effector = 100%, n = 18) was 148% and the activity at 5000 µM (S. aureus ATCC6538P; Staphylococcus aureus, ATCC6538P, effector 5 mM, 5 μM DCIP, no effector = 100%, n = 20) was 154%. For the same molecule, the activity at 5000 µM (S. cerevisiae; Saccharomyces cerevisiae, effector 5 mM, 5 μM DCIP, no effector = 100%, n = 10) was 137%.
`O=C(O)CCC(=O)O` [Succinate] showed a relative %-respiratory activity (P. vulgaris ATCC6380; [2]) of 520%, a relative %-respiratory activity (E. faecalis; [2]) of 87% and a relative %-respiratory activity (E. aerogenes ATCC13048e; [3]) of 187%. It also gave a relative %-respiratory activity (E. coli B) of 134%, a relative %-respiratory activity (E. coli HB101; [4]) of 172% and a relative %-respiratory activity (E. coli JM105; [5]) of 287%. It also gave a relative %-respiratory activity (E. coli Neotype; [3]) of 127%, a relative %-respiratory activity (P. aeruginosa; [4]) of 102% and a relative %-respiratory activity (S. aureus ATCC6538P; [2]) of 167%. For the same molecule, the relative %-respiratory activity (S. cerevisiae; [5]) was 108% and the “respiratory signals in the absence of 5 μM DCIP” value (Gram-positive bacteria) was less than 80%.
For `O=C(O)CC(O)(CC(=O)O)C(=O)O` [Citric acid], the activity at 20000 µM (P. vulgaris ATCC6380; [6]) was 142%, the activity at 20000 µM (E. faecalis; [7]) was 117% and the activity at 20000 µM (E. aerogenes ATCC13048e; [8]) was 163%. For the same molecule, the activity at 20000 µM (E. coli B; [9]) was 161%, the activity at 20000 µM (E. coli HB101; [10]) was 137% and the activity at 20000 µM (E. coli JM105; [11]) was 113%. It also gave an activity at 20000 µM (E. coli Neotype; [12]) of 158%, an activity at 20000 µM (P. aeruginosa; [13]) of 87% and an activity at 20000 µM (S. aureus ATCC6538P; [14]) of 83%. The activity at 20000 µM (S. cerevisiae; [15]) was 103%.
In the case of `OC[C@H]1O[C@@H](O[C@H]2[C@H](O)[C@@H](O)C(O)O[C@@H]2CO)[C@H](O)[C@@H](O)[C@H]1O` (stereo partly drawn) [D-lactose], the activity at 20000 µM (P. vulgaris ATCC6380; [6]) is reported as 162%, the activity at 20000 µM (E. faecalis; [7]) is reported as 123% and the activity at 20000 µM (E. aerogenes ATCC13048e; [8]) is reported as 268%. The activity at 20000 µM (E. coli B; [9]) was 164%, the activity at 20000 µM (E. coli HB101; [10]) was 192% and the activity at 20000 µM (E. coli JM105; [11]) was 115%. It also gave an activity at 20000 µM (E. coli Neotype; [12]) of 150%, an activity at 20000 µM (P. aeruginosa; [13]) of 108% and an activity at 20000 µM (S. aureus ATCC6538P; [14]) of 138%. It also gave an activity at 20000 µM (S. cerevisiae; [15]) of 126%.
